{"source": "paper PMC3375835", "about": "(Tetrahedron letters, 2012)", "format_in_all_cases": "cell-based", "key": {"HIV-1NL4–3": {"tested_on": "HIV-1NL4–3", "assay": "Anti-HIV activity against HIV-1NL4–3 infected MT-4 cells", "details": "for EC50 (concentration of the test sample that was effective to suppress HIV replication by 50%): '-' = No activity (footnote b); for EC50: read-out: EC50 (concentration of the test sample that was effective to suppress HIV replication by 50%), '-' = No activity (footnote b)"}, "[1]": {"assay": "Cytotoxicity to mock-infected MT-4 cells", "details": "human"}, "mock-infected MT-4 cells": {"tested_on": "mock-infected MT-4 cells", "assay": "Cytotoxicity to mock-infected MT-4 cells", "details": "read-out: CC50 (concentration of test sample that was cytotoxic to 50% of the mock-infected cells)"}}}
{"compound": "Cc1cn([C@H]2C[C@H](N=[N+]=[N-])[C@@H](CO)O2)c(=O)[nH]c1=O", "note": "[AZT, 3′-azido-3′-deoxythymidine, reference compound]", "values": [{"measurement": "SI (Selectivity index = CC50/EC50)", "setting": "HIV-1NL4–3; CC50/EC50", "result": 1385}, {"measurement": "CC50", "setting": "[1]", "result": 140, "unit": "µM"}]}
{"compound": "C=C(C)[C@@H]1CC[C@]2(C(=O)O)CC[C@]3(C)[C@H](CC[C@@H]4[C@@]5(C)CC[C@H](OC(=O)CC(C)(C)C(=O)O)C(C)(C)[C@@H]5CC[C@]43C)[C@@H]12", "note": "[Bevirimat (14), 3-O-(3′,3′-dimethylsuccinyl)betulinic acid, reference compound]", "values": [{"measurement": "CC50", "setting": "[1]", "result": 13.2, "unit": "µM"}]}
{"compound": "C#CCOC1CCC2(C)C(CCC3(C)C2CCC2C4C(C(=C)C)CCC4(CO[Si](C)(C)C(C)(C)C)CCC23C)C1(C)C", "note": "(stereo not drawn) [Compound 2]", "values": [{"measurement": "EC50 (concentration of the test sample that was effective to suppress HIV replication by 50%)", "setting": "HIV-1NL4–3", "result": "- ^b"}]}
{"compound": "C#CCOC(=O)OC1CCC2(C)C(CCC3(C)C2CCC2C4C(C(=C)C)CCC4(CO[Si](C)(C)C(C)(C)C)CCC23C)C1(C)C", "note": "(stereo not drawn) [Compound 3]", "values": [{"measurement": "EC50 (concentration of the test sample that was effective to suppress HIV replication by 50%)", "setting": "HIV-1NL4–3", "result": "-"}]}
{"compound": "C#CCOC1CCC2(C)C(CCC3(C)C2CCC2C4C(C(=C)C)CCC4(CO)CCC23C)C1(C)C", "note": "(stereo not drawn) [Compound 4]", "values": [{"measurement": "EC50 (concentration of the test sample that was effective to suppress HIV replication by 50%)", "setting": "HIV-1NL4–3", "result": "-"}]}
{"compound": "C#CCOC(=O)OC1CCC2(C)C(CCC3(C)C2CCC2C4C(C(=C)C)CCC4(CO)CCC23C)C1(C)C", "note": "(stereo not drawn) [Compound 5]", "values": [{"measurement": "EC50 (concentration of the test sample that was effective to suppress HIV replication by 50%)", "setting": "HIV-1NL4–3", "result": "-"}]}
{"compound": "C#CCOC1CCC2(C)C(CCC3(C)C2CCC2C4C(C(=C)C)CCC4(COC(=O)CC(C)(C)C(=O)O)CCC23C)C1(C)C", "note": "(stereo not drawn) [Compound 7]", "values": [{"measurement": "EC50 (concentration of the test sample that was effective to suppress HIV replication by 50%)", "setting": "HIV-1NL4–3", "result": "-"}]}
{"compound": "C=C(C)C1CCC2(CO[Si](C)(C)C(C)(C)C)CCC3(C)C(CCC4C5(C)CCC(OC(=O)OCc6cn(C7CC(n8cc(C)c(=O)[nH]c8=O)OC7CO)nn6)C(C)(C)C5CCC43C)C12", "note": "(stereo not drawn) [Compound 9]", "values": [{"measurement": "EC50 (concentration of the test sample that was effective to suppress HIV replication by 50%)", "setting": "HIV-1NL4–3", "result": "inactive and -"}]}
{"compound": "C=C(C)C1CCC2(COC(=O)CC(C)(C)C(=O)O)CCC3(C)C(CCC4C5(C)CCC(OCc6cn(C7CC(n8cc(C)c(=O)[nH]c8=O)OC7CO)nn6)C(C)(C)C5CCC43C)C12", "note": "(stereo not drawn) [Compound 13]", "values": [{"measurement": "EC50", "setting": "HIV-1NL4–3", "result": 350, "unit": "nM"}, {"measurement": "CC50", "setting": "mock-infected MT-4 cells", "result": "> 4.6", "unit": "µM"}]}
{"compound": "C#CCOC(=O)[C@]12CC[C@@H](C(=C)C)[C@@H]1[C@H]1CC[C@@H]3[C@@]4(C)CC[C@H](OC(=O)CC(C)(C)C(=O)O)C(C)(C)[C@@H]4CC[C@@]3(C)[C@]1(C)CC2", "note": "[Compound 15]", "values": [{"measurement": "EC50", "setting": "HIV-1NL4–3", "result": 67, "unit": "nM"}, {"measurement": "CC50", "setting": "mock-infected MT-4 cells", "result": 15.3, "unit": "µM"}]}
{"compound": "C=C(C)[C@@H]1CC[C@]2(C(=O)OCc3cn([C@H]4C[C@H](n5cc(C)c(=O)[nH]c5=O)O[C@@H]4CO)nn3)CC[C@]3(C)[C@H](CC[C@@H]4[C@@]5(C)CC[C@H](OC(=O)CC(C)(C)C(=O)O)C(C)(C)[C@@H]5CC[C@]43C)[C@@H]12", "note": "[Compound 16]", "values": [{"measurement": "EC50", "setting": "HIV-1NL4–3", "result": 100, "unit": "nM"}, {"measurement": "CC50", "setting": "mock-infected MT-4 cells", "result": 11.2, "unit": "µM"}]}
